Laboratory results as given in ChEMBL document CHEMBL3120140, “Balgacyclamides, antiplasmodial heterocyclic peptides from Microcystis aeruguinosa EAWAG 251” (J Nat Prod, 2014).

How the values were obtained:
L6 = experiment: Cytotoxicity against rat L6 cells after 72 hrs by Alamar blue assay; type: cell-based; details: L6, 72 h
Leishmania donovani = experiment: Antileishmanial activity against Leishmania donovani MHOM-ET-67/L82; type: functional, organism-based
Trypanosoma cruzi = experiment: Antitrypanosomal activity against Trypanosoma cruzi Tulahuen C4; type: functional, organism-based
[1] = test system: Trypanosoma brucei rhodesiense; experiment: Antitrypanosomal activity against Trypanosoma brucei rhodesiense STIB 900 after 72 hrs by Alamar blue assay; type: functional, organism-based; details: STIB 900, 72 h
Plasmodium falciparum = experiment: Antiplasmodial activity against chloroquine-resistant Plasmodium falciparum K1 infected in human RBC after 48 hrs by [3H]-hypoxanthine incorporation assay; type: functional, organism-based

SMILES | IC50 (L6) | IC50 (Leishmania donovani) | IC50 (Trypanosoma cruzi) | IC50 [1] | IC50 (Plasmodium falciparum)
CC[C@H](C)[C@H]1NC(=O)[C@H]2N=C(O[C@@H]2C)[C@H](C(C)C)NC(=O)[C@H]2N=C(O[C@@H]2C)[C@@H](C)NC(=O)c2csc1n2 | > 150 µM | > 150 µM | > 150 µM | 59 µM | 9 µM
CC[C@H](C)[C@H]1NC(=O)[C@H]2N=C(O[C@@H]2C)[C@H](C(C)C)NC(=O)[C@H]([C@@H](C)O)NC(=O)[C@@H](C)NC(=O)c2csc1n2 | > 150 µM | 28 µM | > 150 µM | 51 µM | 8.2 µM
